Columns and labels:
PRMT6 = tested on: PRMT6; design: method as in PMID 24564570; conditions: cited from earlier work
PRMT1 = PRMT1 (Homo sapiens, UniProt Q99873); assay: Stopped flow fluorescence assay of PRMT1 inhibition ([PRMT1] 0.2 µM, [SAM] 3.5 µM, [H4FL] 0.4 µM); assay type: biochemical;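 note: Stopped-flow traces of fluorescent H4FL peptide quenched on binding PRMT1 and restored on release, recorded 900 s, averaged over repeated drives and fit to a double-exponential model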
From the text: To obtain the IC50 of a specific inhibitor, the relative activities of the enzyme in presence of different concentrations of the inhibitor are required (equation 1).[37] […] By adding different concentrations of the inhibitor to the reaction mixture, the relative activity of the enzyme can be obtained by normalizing K to the reaction rate without the inhibitor, and then calculate the IC50 value using equation 1. In our stopped flow fluorescence assay, the reaction rate of Phase I and Phase II can be obtained by approximating and deriving the double-exponential equation (equation 2). In Phase I, during a very short period of time (where t is small), the curve is nearly linear, and the exponential equation can be approximately described as F1 = a · (−k1) · t. Therefore, the derivation of F1 equals –k1∙a, which is the slope of Phase I. Similarly, the curve of Phase II at early stage can be approximately described as F2 = b · (−k2) · t. This derivation of F2 equals –k2∙b, which is the slope of Phase II. The slopes at various inhibitor concentrations, normalized to the slope in the absence of inhibitor, can be used to obtain the corresponding relative enzyme activity from which the potency value (IC50) of the inhibitor can be calculated with equation 1.
In a stopped flow fluorescence assay, the binding of H4FL to PRMT1 (or the PRMT1—cofactor complex) quenches the peptide fluorescence, while release of the peptide restores the fluorescence. […] The widths of the entrance and exit slits of the monochromator were set to 0.5 mm. An equal volume of samples from two syringes was driven into the observation cell for mixing measurements. The H4FL concentration in all experiments was 0.4 μM. […] The fluorescent signal was recorded for 900 seconds, with 10,000 data points in total. Data from four to six drives were collected and averaged for each curve.
After averaging the shot data, the association time courses were fitted to a double-exponential function (equation 2) using GraphPad Prism (CA, USA). […] F is the fluorescence intensity at time t, k1, and k2 are the rate constants for Phase I and Phase II, a is the amplitude of the fluorescence change for k1, and b is the amplitude of the fluorescence change for k2. Simulation curves based on the values of a, b, k1, and k2 at fixed c = 1 were produced using Matlab. The IC50 value of inhibitors is determined by equation 1 using GraphPad Prism (CA, USA).

PRMT5 = tested on: PRMT5; design: method as in PMID 24564570; conditions: cited from earlier work
CARM1 = tested on: CARM1; design: method as in PMID 24564570; conditions: cited from earlier work

Sequence of PRMT1 (Q99873 29-371): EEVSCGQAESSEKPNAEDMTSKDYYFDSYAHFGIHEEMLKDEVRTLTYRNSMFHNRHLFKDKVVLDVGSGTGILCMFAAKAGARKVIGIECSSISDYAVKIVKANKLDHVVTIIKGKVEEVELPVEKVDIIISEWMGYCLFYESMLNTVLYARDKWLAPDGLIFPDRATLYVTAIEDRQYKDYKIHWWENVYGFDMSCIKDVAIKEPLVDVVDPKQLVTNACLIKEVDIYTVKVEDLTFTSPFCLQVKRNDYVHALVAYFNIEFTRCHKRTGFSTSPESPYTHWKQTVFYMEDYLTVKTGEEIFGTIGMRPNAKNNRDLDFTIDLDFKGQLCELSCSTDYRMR

N=C(N)c1ccc(-c2ccc(-c3ccc(C(=N)N)cc3)o2)cc1 [DB75, furamidine]
inhibition selectivity for PRMT1 over PRMT6 (PRMT6): 30 fold
mechanism of inhibition suggested by Phase I/Phase II pattern (PRMT1): substrate-competitive inhibitor
-b·k2 (slope of Phase II) (PRMT1; [DB75] 2.5 µM): 0.0008427 ± 1.61e-06 s⁻¹
a (amplitude, Phase I) (PRMT1; [DB75] 2.5 µM): 0.1608 ± 3.86E-04
a·k1 (slope of Phase I) (PRMT1; [DB75] 2.5 µM): 0.00951 ± 4.83e-05 s⁻¹
b (amplitude, Phase II) (PRMT1; [DB75] 2.5 µM): -0.203 ± 1.66E-04
k1 (rate constant, Phase I) (PRMT1; [DB75] 2.5 µM): 0.05913 ± 2.65E-04 s^-1
k2 (rate constant, Phase II) (PRMT1; [DB75] 2.5 µM): 0.004151 ± 7.18E-06 s^-1
-b·k2 (slope of Phase II) (PRMT1; [DB75] 5 µM): 0.0005995 ± 1.19e-06 s⁻¹
a (amplitude, Phase I) (PRMT1; [DB75] 5 µM): 0.1114 ± 3.10E-04
a·k1 (slope of Phase I) (PRMT1; [DB75] 5 µM): 0.00741 ± 4.25e-05 s⁻¹
b (amplitude, Phase II) (PRMT1; [DB75] 5 µM): -0.14 ± 1.20E-04
k1 (rate constant, Phase I) (PRMT1; [DB75] 5 µM): 0.06653 ± 3.34E-04 s^-1
k2 (rate constant, Phase II) (PRMT1; [DB75] 5 µM): 0.004282 ± 7.68E-06 s^-1
-b·k2 (slope of Phase II) (PRMT1; [DB75] 7.5 µM): 0.0005125 ± 1.42e-06 s⁻¹
a (amplitude, Phase I) (PRMT1; [DB75] 7.5 µM): 0.1285 ± 3.57E-04
a·k1 (slope of Phase I) (PRMT1; [DB75] 7.5 µM): 0.00616 ± 3.66e-05 s⁻¹
b (amplitude, Phase II) (PRMT1; [DB75] 7.5 µM): -0.1789 ± 1.33E-04
k1 (rate constant, Phase I) (PRMT1; [DB75] 7.5 µM): 0.04791 ± 2.52E-04 s^-1
k2 (rate constant, Phase II) (PRMT1; [DB75] 7.5 µM): 0.002865 ± 7.66E-06 s^-1
-b·k2 (slope of Phase II) (PRMT1; [DB75] 10 µM): 0.0003506 ± 2.59e-06 s⁻¹
a (amplitude, Phase I) (PRMT1; [DB75] 10 µM): 0.06466 ± 3.90E-04
a·k1 (slope of Phase I) (PRMT1; [DB75] 10 µM): 0.0024 ± 3.23e-05 s⁻¹
b (amplitude, Phase II) (PRMT1; [DB75] 10 µM): -0.07628 ± 3.14E-04
k1 (rate constant, Phase I) (PRMT1; [DB75] 10 µM): 0.03706 ± 4.47E-04 s^-1
k2 (rate constant, Phase II) (PRMT1; [DB75] 10 µM): 0.004596 ± 2.82E-05 s^-1
-b·k2 (slope of Phase II) (PRMT1; [DB75] 20 µM): 0.00011 ± 4.39e-06 s⁻¹
a (amplitude, Phase I) (PRMT1; [DB75] 20 µM): 0.02855 ± 5.16E-04
a·k1 (slope of Phase I) (PRMT1; [DB75] 20 µM): 0.000854 ± 2.84e-05 s⁻¹
b (amplitude, Phase II) (PRMT1; [DB75] 20 µM): -0.01837 ± 5.38E-04
k1 (rate constant, Phase I) (PRMT1; [DB75] 20 µM): 0.02992 ± 8.36E-04 s^-1
k2 (rate constant, Phase II) (PRMT1; [DB75] 20 µM): 0.005985 ± 1.62E-04 s^-1
-b·k2 (slope of Phase II) (PRMT1; [DB75] 40 µM): 0 s⁻¹
a (amplitude, Phase I) (PRMT1; [DB75] 40 µM): 0.009937 ± 5.73E-04
a·k1 (slope of Phase I) (PRMT1; [DB75] 40 µM): 0.00133 ± 0.000128 s⁻¹
k1 (rate constant, Phase I) (PRMT1; [DB75] 40 µM): 0.1335 ± 1.03E-02 s^-1
inhibition of Phase II (PRMT1; [DB75] above 10 µM): almost fully inhibited
inhibition selectivity for PRMT1 over PRMT5 (PRMT5): more than 15 fold
inhibition selectivity for PRMT1 over CARM1 (CARM1): 42 fold
